Values quoted from earlier work, collected in US4230714A, “Imidazole therapeutic agents” (Pfizer Inc., priority 1978, dated 1980).

Experiments:
[1] = test system: human blood platelet aggregation; details: variety of aggregating agents
[2] = test system: platelet clumping and embolization in the lungs; details: rabbit, intravenous arachidonic acid
[3] = test system: aggregation of platelets; details: rat, extra corporeal loop of the abdominal aorta

SMILES | inhibitory activity against platelet aggregation in vitro [1] | protection from the lethal effect of arachidonic acid injection [2] | prevention of platelet aggregation in vivo [3]
CC(=O)Oc1ccccc1C(=O)O [aspirin] | show inhibitory activity in vitro | protect the rabbit from the lethal effect of the injection | 
O=C1C(CC[S+]([O-])c2ccccc2)C(=O)N(c2ccccc2)N1c1ccccc1 (stereo not shown) [sulphinpyrazone] | show inhibitory activity in vitro |  | prevent the aggregation of platelets
